Earlier results in patent US8637688B2, “Topical dosage form comprising tri-substituted glycerol compounds” (priority 2006, dated 2014).

Tests used:
[1] = test system: cutaneous metastases from breast cancer; settings: 6% solution, topical, average dose rate 0.3 mg/cm^2 skin area
[2] = 6% solution, topical

CCCCCCCCCCCCCCCCOP(=O)([O-])OCC[N+](C)(C)C [miltefosine, hexadecylphosphocholine]
patients treated who showed a beneficial response to the medicament [1]: about one third | skin irritations (redness, itching, cauterization or the like) shortly upon administration [2]: significant skin irritations
